Measured values as given in patent US8071616B2, “Pyridine, quinoline, and isoquinoline N-oxides as kinase inhibitors” (Bayer Healthcare LLC, priority 2002, dated 2011).

melting point: 232 to 234 °C
SMILES: CNC(=O)c1cc(Oc2ccc(NC(=O)Nc3ccc(Cl)c(C(F)(F)F)c3)cc2)cc[n+]1[O-] [Experimental Synthesis 1, N-[4-chloro-3-(trifluoromethyl)phenyl]-N′-{4-[2-(N-methylcarbamoyl)-1-oxo-(4-pyridyloxy)]phenyl}urea]
